Converted amounts (≈) assume the structure as drawn.
Tests used:
Vero cells = assay: cells; settings: Chlorocebus sabaeus; for cytotoxicity at 128 µg/mL: read-out: Vero cell (% inh); for IC50: read-out: Vero cell IC50
[1] = test system: M. tuberculosis H37Rv (ATCC 27294); assay: Microplate Alamar blue assay (MABA); format: cell-based, Mycobacterium tuberculosis; settings: for MIC: Mycobacterium tuberculosis
[2] = test system: M. tuberculosis H37Rv (ATCC 27294); assay: microbe, parasite or virus in culture; format: cell-based, Mycobacterium tuberculosis; settings: Mycobacterium tuberculosis; for inhibition at 64 µg/mL: % inhibition at 64 μg/mL, read-out: LORA % inh; for MIC: read-out: LORA MIC
NCI-60 cell line = settings: cited from earlier work
M. tuberculosis H37Rv [3] = test system: M. tuberculosis H37Rv; set-up: method as in PMID 12828474; settings: natural 2 isolated from P. elisabethae, at 12.5 μg/mL (40 μM); cited from earlier work
M. tuberculosis H37Rv [4] = test system: M. tuberculosis H37Rv; set-up: method as in PMID 9145860; settings: comparison values; cited from earlier work
[5] = M. tuberculosis H37Rv (ATCC 27294), replicating, read-out: MABA MIC

Molecule	cytotoxicity at 128 µg/mL (Vero cells) [%]	IC50 (Vero cells) [µg/mL]	SI (Selectivity Index) ([1]; (Vero Cell IC50)/(M. tuberculosis MIC))	MIC [1, 5] [µg/mL]	MIC ([1]; wild-type M. tuberculosis H37Rv, Table 2 experiment, read-out: MABA MIC H37Rv) [µg/mL]	inhibition at 64 µg/mL [2] [%]	MIC ([2]; non-replicating persistent model) [µg/mL]	MIC ([2]; value given in μM) [µM]	cytotoxicity against the NCI-60 cell line assay (NCI-60 cell line)	activity against M. tuberculosis H37Rv ([1]; semi-synthetic material, MABA)	inhibition against M. tuberculosis H37Rv (M. tuberculosis H37Rv [3]) [%]	MIC of first and second line TB treatments (M. tuberculosis H37Rv [4]) [µM]
CC(C)=C[C@@H]1C[C@H](C)[C@H]2CC[C@H](C)c3c2c1c(C)c1ncoc31 [Compound 1, pseudopteroxazole]	0	> 128	>8.6	15 (≈ 48.5 µM)	7 (≈ 22.6 µM)	99.7	50	162	no significant cytotoxicity	–	–	–
CCCCCc1nc2c(C)c3c4c(c2o1)[C@@H](C)CC[C@@H]4[C@@H](C)C[C@H]3C=C(C)C [Compound 2, homopseudopteroxazole]	0	> 128	–	> 128	–	22.6	–	–	–	not active	80	–
NC[C@H]1O[C@H](O[C@H]2[C@H](O)[C@@H](O[C@H]3O[C@H](CO)[C@@H](O)[C@H](N)[C@H]3O)[C@H](N)C[C@@H]2N)[C@H](O)[C@@H](O)[C@@H]1O [kanamycin]	–	–	–	–	–	–	–	–	–	–	–	2.5 to 10.3
capreomycin	–	–	–	–	–	–	–	–	–	–	–	0.94 to 3.7

From article PMC3447335, “Evaluation of Pseudopteroxazole and Pseudopterosin Derivatives against Mycobacterium tuberculosis and Other Pathogens” (Marine Drugs, 2012)
